# Test results from patent US11913018B2, “In vitro production of expanded potential stem cells” (GENOME RESEARCH LIMITED, priority 2014, dated 2024).
# What was measured:
# [1] = test system: AB2.2 mouse ESCs; test: TE contribution of mouse ESCs cultured in inhibitor combinations, injected to 8-cell host embryos; type: cell-based; conditions: AB2.2 mouse ESCs cultured at least 5 passages, chimera blastocysts co-stained for mCherry and Cdx2
# From the text: Mouse EPSCs were initially derived and maintained in the standard EPSCM that contains six inhibitors (see materials and methods). To determine the effects of individual inhibitors in EPSCM and to explore the possibility that fewer inhibitors might be sufficient for the expanded potential in mouse stem cells, we cultured AB2.2 mouse ESCs in various combinations of inhibitors, initially based on the 2i/LIF medium, for at least 5 passages before injected to 8-cell host embryos. The chimera blastocysts were co-stained for mCherry and Cdx2 for TE contribution.
# Injections were carried out with a Nikon Eclipse TE2000-U inverted microscope unit. ESC/EPSC microinjection was performed at room temperature on the inverted lid of a 100-mm falcon culture dish in an injection drop of 1.0 ml M2 medium (Sigma) The embryo was injected with 6-8 cells per 8-cell stage embryo for bulk injection or 1 cell per embryo for single cell injection. After 45-50 embryos have been injected, the injected embryos were washed three times in KSOM (Millipore) containing 3.0 mg/ml BSA, Embryos were then transferred into a well of four-well plate containing 1.0 ml KSOM. After overnight culture, 20-25 injected embryos were transferred into both uterus of a foster recipient.
# [2] = test system: EPSCs; test: EPSCM with other wnt inhibitor in place of XAV939; type: cell-based
# [3] = test system: human EPSCs; test: Culture and maintenance of human EPSCs; type: cell-based
# From the text: We also investigated whether human ESCs could survive and proliferate in EPSCM. H1 hESCs were maintained in standard FGF2 containing media on feeders. H1 cells survived culture in EPSCM and morphologically distinct 3-dimensional colonies emerged within one passage. Continued culture allowed establishment of a stable line which we called H1-EPSCs.
# Human iPSC lines were also produced from human neural stem cells, and from human fetal or adult skin fibroblast cells using the six-factor reprogramming technology described in Wang et al (2011) and cultured for 2-3 weeks on feeders. The resulting iPSCs were switched to EPSCM and transgene free stable lines were established (EPSC-iPSCs). (FIG. 6). Stable human EPSC-iPSC lines have been passaged for over 30 passages in EPSCM.
# We made several reporter EPSC lines that have a GFP or mCherry expression cassette at loci including Oct4, Sox2 and ROSA26. […] Importantly, these reporter cells provide a convenient way to assess the culture condition. […] However, we have also observed cases where EPSCM supplemented with fewer than six inhibitors has been able to obtain EPSCs. For example, where the EPSCM is supplemented with a chemically defined basal medium, such as Albumax II, it has been observed that fewer than six inhibitors are required obtain EPSCs. […]
# [4] = test system: Jak/Stat pathway; test: LIF response in ESCs and EPSCs; type: cell-based, mouse; conditions: adding LIF to EPSCs
# Procedure: For LIF stimulation, 1.0×10^6 cells were seeded in […] for 24 hours. Cells were washed with PBS and cultured in DMEM/F12/KSR for 4 hours, then LIF was supplemented at concentration of 0.0, 0.5, 1.0, 5.0 and 10.0 ng/ml for 30 minutes. Whole cell protein was extracted for Western blot using pSTAT3 (Cell signalling) and STAT3 (BD Biosciences) antibodies. α-Tubulin (Abcam) was used as loading control.
# To analyse the expression of down-stream target genes of Jak-Stat3 and MAPK signalling at transcription level after LIF stimulation, both E14Tg2a ESCs and EPSCs were deprived of LIF for 4 hours as above, LIF 1.0 ng/ml was supplemented for 1 hour, total RNA was extracted and reverse transcribed to make cDNA. qPCR was performed using Taqman Gene Expression Assays (ABI)
compound,measurement,setting,value
CN1CCN(C2CCC(n3cc(-c4ccc(Oc5ccccc5)cc4)c4c(N)ncnc43)CC2)CC1 (centres unmarked) [A419259],TE contribution on adding inhibitor to the 2i/LIF (2i) medium,[1],substantially increased TE contribution
Cc1ccc2nc(NC(=O)CSc3nc4c(c(=O)n3-c3ccccc3)SCC4)sc2c1 [IWP-2],use as the wnt inhibitor in EPSCM in place of XAV939,[2],successfully used
CCOc1nc(NC(=O)Cc2cc(OC)ccc2OC)cc(N)c1C#N [JNKi],effect of inhibitor absence on human EPSC culture,[3],absence caused gradual deterioration
Oc1nc(-c2ccc(C(F)(F)F)cc2)nc2c1CSCC2 [XAV939],TE contribution on adding inhibitor to the 2i/LIF (2i) medium,[1],substantially increased TE contribution
Cc1cc(/C=C2\SC(=O)N(c3ccccc3)C2=O)c(C)n1-c1cccnc1 [iCRT 14],use as the wnt inhibitor in EPSCM in place of XAV939,[2],successfully used
C[S+]([O-])c1ccc(-c2nc(-c3ccncc3)c(-c3ccc(F)cc3)[nH]2)cc1 (centres unmarked) [p38i],effect of inhibitor absence on human EPSC culture,[3],absence caused gradual deterioration
"LIF: leukemia inhibitory factor, a cytokine",expression of Jak/Stat downstream genes,[4],upregulated expression of Jak/Stat downstream genes
same,phosphorylation of Stat3,[4],increased phosphorylation of Stat3
